Reference: patent US8637528B2, “Use of PDE7 inhibitors for the treatment of movement disorders” (Omeros Corporation, priority 2007, dated 2014)

What was measured:
PDE1B = PDE1B (Homo sapiens (Human), UniProt Q01064); test: PDE selectivity SPA assay, PDE1B; format: biochemical; settings: IC50 against PDE1B divided by IC50 against PDE7A
Experimental: (§1) Phosphodiesterase activity was measured by a scintillation proximity assay (SPA, GE Healthcare: Product Code TRKQ7100) with [^3H]-cAMP as the substrate for PDEs 3A, 4A, 8A, or with [^3H]-cGMP as the substrate for PDEs 1B, 2A, 5A, 9A, 10A and 11A. Purified human PDE1B, PDE2A, PDE3A, PDE4A, PDE5A, PDE8A, PDE9A and PDE11A4 were obtained from BPS Bioscience, San Diego, Calif. Purified murine PDE10A was also obtained from BPS Biosciences. […] Therefore, the results obtained using murine PDE10A are believed to be representative of human PDE10.
(§2) The purified PDE enzymes were each diluted and stored in a solution containing 25 mM Tris-Cl (pH 8.0), 100 mM NaCl, 0.05% Tween 20, 50% glycerol, and 3 mM DTT. PDE assays were carried out in the following assay cocktail (final concentrations): 50 mM Tris-Cl (pH 8.0), 8.3 mM MgCl2, 1.7 mM EGTA, 0.5 mg/ml BSA, 2.5% DMSO and between 0.2 ng and 6 ng of the PDE protein (depending on the enzyme activity) in a final volume of 0.1 mL.
(§3) Reactions were initiated by addition of enzyme, incubated for 20 minutes at 30° C. and then terminated by the addition of 50 μl of SPA beads containing Zn^2+.
(§4) The mixture was shaken, and allowed to settle for 3 hours. Then the production of [^3H]-AMP or [^3H]-GMP from the substrate was quantitated by scintillation counting in a Wallac® plate counter. […]

PDE4A = PDE4A (Homo sapiens (Human), UniProt P27815); test: PDE selectivity SPA assay, PDE4A; format: biochemical; settings: IC50 against PDE4A divided by IC50 against PDE7A
Experimental: as §1, §2, §3, §4

PDE5A = PDE5A (Homo sapiens (Human), UniProt O76074); test: PDE selectivity SPA assay, PDE5A; format: biochemical; settings: IC50 against PDE5A divided by IC50 against PDE7A
Experimental: as §1, §2, §3, §4

PDE10A = PDE10A (Mus musculus (Mouse), UniProt Q8CA95); test: PDE selectivity SPA assay, PDE10A; format: biochemical; settings: IC50 against murine PDE10A divided by IC50 against PDE7A
Experimental: as §1, §2, §3, §4

MPTP-treated mice = test: inked paw stride length in the MPTP mouse model of Parkinson's disease, initial study (Example 5); format: in vivo; settings: for effect on stride length of saline-treated mice, in words: 20 minutes after dosing
Experimental: Adult male C57BL/6J; retired breeders, aged between 7-9 months (Jackson Laboratory, Bar Harbor, Me., USA), singly housed.
Mice received 2 subcutaneous injections of methylphenyltetrahydropyridine (“MPTP”) at a dose of 15 mg/kg (free base) with a 10-12 hour interval between injections. Control mice (sham lesion groups) were administered saline instead of MPTP.
Seven days after MPTP or saline administration, OM69 was administered to mice. For each dose, a 100× stock of OM69 compound was prepared in 100% DMSO and subsequently diluted 100× into phosphate buffered saline (PBS). Then 100 μL of this 1× solution was administered via intraperitoneal (IP) injection.
Prior to injection with MPTP or saline, animals were pre-trained to walk across a clean sheet of paper into their home cage without stopping. For assessment of stride length, animals had their forepaws placed in black ink and the length of forepaw steps during normal walking (in a straight line only) was measured. The animals were immediately put back into their home cage upon completion of the task. Stride length was determined by measuring the distance between each step on the same side of the body, measuring from the middle toe of the first step to the heel of the second step. An average of at least four clear steps was calculated.
Retired breeder male mice (12-15 per group, ˜48-60 animals total) were treated with either saline or 2×15 mg/kg MPTP (12 saline; […]) to induce a Parkinsonian state (neurochemical loss of dopamine with corresponding behavioral deficits).
On day eight stride length was measured again, and the control value for stride length was derived from the stride length of saline-treated animals. Following this measurement the first treatments with L-dopa (5 mg/kg) or OM69 (0.1 mg/kg) were administered on day eight, as shown in FIG. 8. Stride length was then measured for each animal 20 minutes after dosing. […] Dosing with the treatments shown in FIG. 8 was carried out on successive days, with stride length measured 20 minutes after each dosing. As mentioned above, it was previously determined from pharmacokinetic studies that OM69 is washed out of the mice within 12 hours after dosing, so the stride length test carried out 20 minutes after dosing was believed to be measuring the effect of only the compounds administered on the day of treatment.
On day nine Group 1 animals were treated with L-dopa (1 mg/kg), and Group 2 animals were treated with OM69 (0.01 mg/kg). On day ten the treatment groups were crossed over, and Group 1 animals were treated with OM69 (0.01 mg/kg), and Group 2 animals were treated with L-dopa (1 mg/kg).
As further shown in FIG. 8, for the combination studies, all the mice in Group 1 and Group 2 were combined. On day 11 following MPTP administration, all the animals in Group 1 and Group 2 (n=9) were treated with the combination of L-dopa (1 mg/kg) and OM69 (0.01 mg/kg), with the stride length test carried out 20 minutes after dosing. On day 12 following MPTP administration, all the animals in Group 1 and Group 2 (n=9) were treated with the combination of L-dopa (1 mg/kg) and OM69 (0.03 mg/kg) with the stride length test carried out 20 minutes after dosing. In these combination studies carried out on day 11 and day 12, the average stride length data from two of the nine animals was not scorable because these two animals either ran rather than walking at a normal speed, or they kept starting and stopping rather than walking continuously. Therefore, these two animals were excluded, and only the remaining seven animals (n=7) were scored for the combination studies.
To assess and compare the effects of OM69 and L-dopa at these doses, data from mice with equivalent dosing was pooled. Thus, the average stride length for animals treated with L-dopa (1 mg/kg) was determined using measurements obtained from all nine animals. […]

Dopamine D2L receptor = Dopamine D2L receptor (Homo sapiens (Human), UniProt P14416); test: Dopamine D2L radioligand binding assay; settings: 10.0 μM
[1] = target: Catechol-O-Methyltransferase (COMT) (Sus scrofa, UniProt D3K5L3); test: biochemical; format: biochemical, pig; settings: 10.0 μM
Sequence of Catechol-O-Methyltransferase (COMT) (D3K5L3 1-270): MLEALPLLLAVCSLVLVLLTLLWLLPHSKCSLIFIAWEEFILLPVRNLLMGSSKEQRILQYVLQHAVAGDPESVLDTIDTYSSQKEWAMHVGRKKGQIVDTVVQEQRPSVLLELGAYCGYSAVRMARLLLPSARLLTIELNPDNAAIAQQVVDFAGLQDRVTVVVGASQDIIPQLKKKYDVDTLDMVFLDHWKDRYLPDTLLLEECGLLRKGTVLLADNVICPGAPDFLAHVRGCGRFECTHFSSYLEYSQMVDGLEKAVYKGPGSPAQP

Sequence of PDE1B (Q01064 whole entry): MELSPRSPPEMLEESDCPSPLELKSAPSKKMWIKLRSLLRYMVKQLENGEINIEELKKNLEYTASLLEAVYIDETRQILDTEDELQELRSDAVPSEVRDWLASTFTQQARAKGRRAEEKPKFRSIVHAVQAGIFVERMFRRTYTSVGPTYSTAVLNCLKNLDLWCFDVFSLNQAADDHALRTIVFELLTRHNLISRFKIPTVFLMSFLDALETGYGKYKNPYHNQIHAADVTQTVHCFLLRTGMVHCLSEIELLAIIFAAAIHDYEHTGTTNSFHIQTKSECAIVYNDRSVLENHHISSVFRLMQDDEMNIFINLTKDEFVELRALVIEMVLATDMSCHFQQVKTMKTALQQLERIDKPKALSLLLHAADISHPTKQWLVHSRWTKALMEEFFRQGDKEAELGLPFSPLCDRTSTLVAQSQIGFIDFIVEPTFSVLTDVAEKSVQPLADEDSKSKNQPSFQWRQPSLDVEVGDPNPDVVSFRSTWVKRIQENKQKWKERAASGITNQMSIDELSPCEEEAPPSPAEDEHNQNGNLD
Sequence of PDE4A (P27815 whole entry): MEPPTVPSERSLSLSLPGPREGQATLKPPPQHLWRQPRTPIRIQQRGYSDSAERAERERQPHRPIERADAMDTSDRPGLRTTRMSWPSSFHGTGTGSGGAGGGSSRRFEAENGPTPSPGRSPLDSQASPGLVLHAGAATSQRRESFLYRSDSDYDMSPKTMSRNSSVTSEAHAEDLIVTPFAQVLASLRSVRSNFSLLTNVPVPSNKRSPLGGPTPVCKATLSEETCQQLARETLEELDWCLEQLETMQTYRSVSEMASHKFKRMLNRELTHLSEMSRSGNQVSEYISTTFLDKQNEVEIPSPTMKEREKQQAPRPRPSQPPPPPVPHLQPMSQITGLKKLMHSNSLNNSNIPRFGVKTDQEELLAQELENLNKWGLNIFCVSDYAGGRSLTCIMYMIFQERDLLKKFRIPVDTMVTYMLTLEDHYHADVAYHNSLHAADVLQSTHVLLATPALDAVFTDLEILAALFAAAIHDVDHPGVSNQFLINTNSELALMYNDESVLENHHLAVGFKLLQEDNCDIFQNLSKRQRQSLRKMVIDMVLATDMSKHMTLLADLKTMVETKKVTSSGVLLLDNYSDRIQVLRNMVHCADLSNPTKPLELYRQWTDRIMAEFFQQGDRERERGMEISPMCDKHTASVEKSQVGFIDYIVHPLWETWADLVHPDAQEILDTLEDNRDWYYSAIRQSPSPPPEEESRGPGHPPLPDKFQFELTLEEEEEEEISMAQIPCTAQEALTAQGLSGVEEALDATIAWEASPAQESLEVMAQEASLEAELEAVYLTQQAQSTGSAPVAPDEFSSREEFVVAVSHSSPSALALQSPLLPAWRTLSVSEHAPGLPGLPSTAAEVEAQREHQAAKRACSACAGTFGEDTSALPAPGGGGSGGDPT
Sequence of PDE10A (Q8CA95 whole entry): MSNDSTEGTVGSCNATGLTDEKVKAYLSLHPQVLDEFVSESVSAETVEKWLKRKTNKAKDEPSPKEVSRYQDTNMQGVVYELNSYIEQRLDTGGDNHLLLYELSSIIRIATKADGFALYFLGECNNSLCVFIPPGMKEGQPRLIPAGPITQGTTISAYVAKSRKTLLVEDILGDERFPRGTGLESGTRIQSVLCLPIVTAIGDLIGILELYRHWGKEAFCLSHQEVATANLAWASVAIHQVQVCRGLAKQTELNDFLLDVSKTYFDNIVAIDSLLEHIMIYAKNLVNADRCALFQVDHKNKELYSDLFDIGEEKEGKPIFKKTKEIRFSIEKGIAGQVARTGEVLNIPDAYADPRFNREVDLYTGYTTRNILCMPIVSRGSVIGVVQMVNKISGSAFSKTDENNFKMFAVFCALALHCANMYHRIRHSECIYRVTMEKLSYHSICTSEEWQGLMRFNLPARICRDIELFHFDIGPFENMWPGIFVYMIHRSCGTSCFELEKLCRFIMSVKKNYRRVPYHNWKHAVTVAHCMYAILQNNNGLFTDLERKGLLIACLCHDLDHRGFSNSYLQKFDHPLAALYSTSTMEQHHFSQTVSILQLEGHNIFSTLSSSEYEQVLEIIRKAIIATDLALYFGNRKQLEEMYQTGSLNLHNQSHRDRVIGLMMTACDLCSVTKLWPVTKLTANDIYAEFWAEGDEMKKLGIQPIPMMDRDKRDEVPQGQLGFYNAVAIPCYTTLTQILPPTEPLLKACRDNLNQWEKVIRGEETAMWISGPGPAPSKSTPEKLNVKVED
Sequence of Dopamine D2L receptor (P14416 whole entry): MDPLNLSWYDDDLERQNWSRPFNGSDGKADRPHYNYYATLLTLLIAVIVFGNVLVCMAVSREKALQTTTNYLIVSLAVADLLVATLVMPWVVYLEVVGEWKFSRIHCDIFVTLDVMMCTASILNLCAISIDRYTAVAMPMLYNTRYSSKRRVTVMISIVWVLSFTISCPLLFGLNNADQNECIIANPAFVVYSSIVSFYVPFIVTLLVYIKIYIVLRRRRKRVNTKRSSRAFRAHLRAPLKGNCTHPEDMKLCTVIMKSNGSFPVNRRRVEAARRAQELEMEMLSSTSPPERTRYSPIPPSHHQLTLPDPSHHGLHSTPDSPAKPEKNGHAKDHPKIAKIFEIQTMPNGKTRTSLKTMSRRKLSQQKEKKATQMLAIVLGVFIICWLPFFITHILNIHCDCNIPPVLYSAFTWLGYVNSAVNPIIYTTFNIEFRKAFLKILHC

SMILES	Fold Selectivity for PDE7A versus PDE1B (PDE1B)	Fold Selectivity for PDE7A versus PDE4A (PDE4A) [fold]	Fold Selectivity for PDE7A versus PDE5A (PDE5A) [fold]	Fold Selectivity for PDE7A versus PDE10A (PDE10A) [fold]	effect on stride length, in words (MPTP-treated mice; MPTP-treated mice, L-dopa 1 mg/kg)	effect on stride length, in words (MPTP-treated mice; MPTP-treated mice, L-dopa 5 mg/kg)	dose dependence of the effect on stride length, in words (MPTP-treated mice; MPTP-treated mice, L-dopa 1 and 5 mg/kg)	effect on stride length of saline-treated mice, in words (MPTP-treated mice; L-dopa 5 mg/kg)	percent inhibition of ligand binding to Dopamine D2L (Dopamine D2L receptor) [%]	percent inhibition of COMT enzymatic activity [1] [%]	effect on stride length, in words (MPTP-treated mice; MPTP-treated mice, OM69 0.01 mg/kg)	effect on stride length, in words (MPTP-treated mice; MPTP-treated mice, OM69 0.1 mg/kg IP)	L-dopa dose with the same effect on stride length, relative to the OM69 dose (MPTP-treated mice; OM69 0.1 mg/kg IP versus L-dopa 5 mg/kg) [fold]	effect on stride length of saline-treated mice, in words (MPTP-treated mice; OM69 0.1 mg/kg)
O=C1Nc2c(Cl)ccc(OCCO)c2C2(CCCCC2)N1 [OM955]	342 fold	113	355	379										
N[C@@H](Cc1ccc(O)c(O)c1)C(=O)O [L-dopa, levodopa, reference compound]					only a small effect	fully restore the stride length to that seen without MPTP treatment	increases their stride length in a dose-dependent manner	Neither L-dopa (5 mg/kg) nor OM69 (0.1 mg/kg) altered the stride length of saline-treated mice						
COc1cc(N)ccc1-c1cc2c(c(=O)[nH]1)C(C1CCCCC1)N=[N+]2C (stereo not drawn) [OM69]	29,608 fold	6500	4630	1050					4.0	19.0	only a small effect	fully restore the stride length to that seen without MPTP treatment	50	Neither L-dopa (5 mg/kg) nor OM69 (0.1 mg/kg) altered the stride length of saline-treated mice
